Laboratory results taken from PubChem BioAssay (NCI).
“And” between values parts separate entries of the source, which are not always exact repeats. Equal values may be shown once.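 GI50 = concentration required for 50% inhibition of growth. TGI: concentration producing complete growth inhibition.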

Experiments:
Test in all cases: inhibition of tumour cell growth, NCI panel, 384-well format; in the data active = GI50 below about 0.43 µM; inactive = the rest
[1] = tested on: OVCAR-3 ovarian
[2] = tested on: T-47D breast
[3] = tested on: SF-295 CNS
[4] = tested on: MDA-MB-435 melanoma
[5] = tested on: K-562 leukemia
[6] = tested on: OVCAR-5 ovarian
[7] = tested on: MCF7 breast
[8] = tested on: UACC-62 melanoma
[9] = tested on: COLO 205 colon
[10] = tested on: IGROV1 ovarian
[11] = tested on: HL-60(TB) leukemia
[12] = tested on: HT29 colon
[13] = tested on: HOP-62 NSCLC
[14] = tested on: SNB-75 CNS
[15] = tested on: HCC-2998 colon
[16] = tested on: SK-MEL-2 melanoma
[17] = tested on: ACHN renal
[18] = tested on: UO-31 renal
[19] = tested on: A498 renal
[20] = tested on: NCI-H226 lung
[21] = tested on: RPMI-8226 leukemia
[22] = tested on: M14 melanoma
[23] = tested on: MDA-MB-468 breast
[24] = tested on: MDA-MB-231 breast
[25] = tested on: LOX IMVI melanoma
[26] = tested on: NCI-H322M lung
[27] = tested on: 786-0 renal
[28] = tested on: SF-539 CNS
[29] = tested on: RXF 393 renal
[30] = tested on: TK-10 renal
[31] = tested on: SR leukemia
[32] = tested on: SK-MEL-5 melanoma
[33] = tested on: CCRF-CEM leukemia
[34] = tested on: U251 glioblastoma
[35] = tested on: A549 NSCLC
[36] = tested on: MOLT-4 leukemia
[37] = tested on: HOP-92 NSCLC
[38] = tested on: SNB-19 CNS
[39] = tested on: NCI/ADR-RES ovarian
[40] = tested on: DU-145 prostate
[41] = tested on: NCI-H23 lung
[42] = tested on: HS 578T breast
[43] = tested on: NCI-H522 lung
[44] = tested on: SF-268 CNS
[45] = tested on: HCT-116 colon
[46] = tested on: HCT-15 colon
[47] = tested on: OVCAR-4 ovarian
[48] = tested on: KM12 colon
[49] = tested on: SW-620 colon
[50] = tested on: EKVX NSCLC
[51] = tested on: OVCAR-8 ovarian
[52] = tested on: BT-549 breast
[53] = tested on: SK-MEL-28 melanoma
[54] = tested on: PC-3 prostate
[55] = tested on: CAKI-1 renal
[56] = tested on: SK-OV-3 ovarian
[57] = tested on: MALME-3M melanoma
[58] = tested on: NCI-H460 NSCLC
[59] = tested on: SN12C renal

Nc1nc2[nH]cc(CCc3ccc(C(=O)N[C@@H](CCC(=O)O)C(=O)O)cc3)c2c(=O)[nH]1
30.5 nM and 57.5 nM: TGI [11]
> 50000 nM: TGI [16]
1120 nM and 1630 nM: TGI [24]
350 nM and 445 nM: GI50 [8]
73.3 nM: TGI [33]
5610 nM: TGI [53]
50000 nM and > 100000 nM: TGI [1] | TGI [4] | TGI [6] | TGI [7] | TGI [8] | TGI [12] | TGI [13] | TGI [15] | TGI [17] | TGI [19] | TGI [30] | TGI [35] | TGI [38] | TGI [39] | TGI [40] | TGI [42] | TGI [45] | TGI [46] | TGI [49] | TGI [51] | TGI [55] | TGI [57] | TGI [58]
23.6 nM and 33.8 nM: TGI [36]
58.3 nM: TGI [29]
24.8 nM: TGI [5]
active: GI50 [1] 336 nM and 286 nM | GI50 [3] 31.6 nM and 75.6 nM | GI50 [5] 11.8 nM | GI50 [7] 47.1 nM and 33.9 nM | GI50 [9] 37.9 nM and 30.6 nM | GI50 [11] 14.8 nM and 22.6 nM | GI50 [12] 257 nM and 89 nM | GI50 [13] 307 nM and 181 nM | GI50 [14] 78.2 nM and 121 nM | GI50 [15] 40.5 nM and 24 nM | GI50 [17] 180 nM and 80.4 nM | GI50 [18] 195 nM and 33.4 nM | GI50 [20] 54 nM and 28.2 nM | GI50 [21] 17.2 nM and 26 nM | GI50 [22] 105 nM and 56.1 nM | GI50 [23] 131 nM and 322 nM | GI50 [24] 234 nM and 374 nM | GI50 [25] 88.3 nM | GI50 [27] 33.5 nM and 30.5 nM | GI50 [28] 72.1 nM and 41.9 nM | GI50 [29] 24.8 nM | GI50 [31] 33.1 nM and 38.8 nM | GI50 [33] 21.3 nM | GI50 [34] 243 nM and 249 nM | GI50 [35] 355 nM and 294 nM | GI50 [36] 12.1 nM and 19.2 nM | GI50 [39] 267 nM and 151 nM | GI50 [40] 202 nM and 146 nM | GI50 [42] 254 nM and 276 nM | GI50 [43] 300 nM and 327 nM | GI50 [44] 45.8 nM and 33.4 nM | GI50 [45] 38.7 nM and 61.8 nM | GI50 [49] 47.2 nM and 70.8 nM | GI50 [51] 44.7 nM and 50.1 nM | GI50 [52] 194 nM and 37.6 nM | GI50 [53] 167 nM | GI50 [54] 64.3 nM | GI50 [55] 193 nM and 179 nM | GI50 [58] 120 nM and 79.2 nM | GI50 [59] 45.8 nM and 36.6 nM
40.2 nM and 52.8 nM: TGI [21]
> 100000 nM: TGI [2] | TGI [10] | TGI [25] | TGI [26] | TGI [32] | TGI [37] | TGI [41] | TGI [47] | TGI [48] | TGI [50] | TGI [54] | TGI [56]
50000 nM and 8170 nM: TGI [27]
264 nM and 96.2 nM: TGI [44]
inactive: GI50 [2] > 100000 nM | GI50 [6] 1310 nM and 4200 nM | GI50 [10] > 50000 nM and 29800 nM | GI50 [16] > 50000 nM | GI50 [26] > 100000 nM | GI50 [37] > 100000 nM | GI50 [38] 1030 nM and 3660 nM | GI50 [41] > 50000 nM and 9320 nM | GI50 [46] 1160 nM and 506 nM | GI50 [47] > 50000 nM and 6980 nM | GI50 [48] > 100000 nM | GI50 [57] 3120 nM and 728 nM
245 nM and 760 nM: GI50 [30]
